Experimental data published in ChEMBL document CHEMBL3120112, “Novel bronchodilatory quinazolines and quinoxalines: synthesis and biological evaluation” (Eur J Med Chem, 2014).
Activity calls are given as the source filed them. No cut-off for these calls is given here.

Columns and labels:
[1] = Bronchodilatory activity in Wistar rat trachea assessed as inhibition of carbacol-induced contraction; format: functional; conditions: read-out: ED50 (the source's name)
[2] = Bronchodilatory activity in guinea pig trachea assessed as inhibition of contraction; format: functional, tissue-based
[3] = Acute toxicity in ip dosed ICR mouse; format: organism-based; conditions: in vivo
[4] = species on record: Rattus norvegicus; assay: Antagonist activity at rat trachea muscarinic acetylcholine receptor assessed as inhibition of carbachol-induced contraction preincubated for 10 mins followed by agonist challenge
[5] = species on record: Cavia porcellus; assay: Agonist activity at guinea pig trachea beta adrenergic receptor assessed as relaxation effect in presence of propranolol
[6] = test system: Mus musculus; assay: Toxicity in ICR mouse assessed as change in body weight at 18 to 54 mg/kg, po qd for 7 days measured every day for 7 days; format: organism-based; design: dose 18-54 mg/kg, route oral; conditions: in vivo, 168 h
[7] = test system: Mus musculus; assay: Toxicity in ICR mouse assessed as mortality at 18 to 54 mg/kg, po qd for 7 days measured every day for 7 days; format: organism-based; design: dose 18-54 mg/kg, route oral; conditions: in vivo, 168 h
[8] = species on record: Rattus norvegicus; conditions: Wistar, Trachea
[9] = test system: Mus musculus; assay: Toxicity in ICR mouse assessed as change in testicle weight at 54 mg/kg, po qd for 7 days measured every day for 7 days (0.118 +/- 0.004 g); format: organism-based; design: dose 54 mg/kg, route oral; conditions: in vivo, 168 h
[10] = test system: Mus musculus; assay: Toxicity in ICR mouse assessed as change in testicle weight at 36 mg/kg, po qd for 7 days measured every day for 7 days (0.118 +/- 0.004 g); format: organism-based; design: dose 36 mg/kg, route oral; conditions: in vivo, 168 h
[11] = test system: Mus musculus; assay: Toxicity in ICR mouse assessed as change in testicle weight at 18 mg/kg, po qd for 7 days measured every day for 7 days (0.118 +/- 0.004 g); format: organism-based; design: dose 18 mg/kg, route oral; conditions: in vivo, 168 h
[12] = test system: Mus musculus; assay: Toxicity in ICR mouse assessed as change in heart weight at 54 mg/kg, po qd for 7 days measured every day for 7 days (0.155 +/- 0.002 g); format: organism-based; design: dose 54 mg/kg, route oral; conditions: in vivo, 168 h
[13] = test system: Mus musculus; assay: Toxicity in ICR mouse assessed as change in heart weight at 36 mg/kg, po qd for 7 days measured every day for 7 days (0.155 +/- 0.002 g); format: organism-based; design: dose 36 mg/kg, route oral; conditions: in vivo, 168 h
[14] = test system: Mus musculus; assay: Toxicity in ICR mouse assessed as change in heart weight at 18 mg/kg, po qd for 7 days measured every day for 7 days (0.155 +/- 0.002 g); format: organism-based; design: dose 18 mg/kg, route oral; conditions: in vivo, 168 h
[15] = test system: Mus musculus; assay: Toxicity in ICR mouse assessed as change in liver weight at 54 mg/kg, po qd for 7 days measured every day for 7 days (1.772 +/- 0.120 g); format: organism-based; design: dose 54 mg/kg, route oral; conditions: in vivo, 168 h
[16] = test system: Mus musculus; assay: Toxicity in ICR mouse assessed as change in liver weight at 18 mg/kg, po qd for 7 days measured every day for 7 days (1.772 +/- 0.120 g); format: organism-based; design: dose 18 mg/kg, route oral; conditions: in vivo, 168 h
[17] = test system: Mus musculus; assay: Toxicity in ICR mouse assessed as change in spleen weight at 54 mg/kg, po qd for 7 days measured every day for 7 days (0.143 +/- 0.033 g); format: organism-based; design: dose 54 mg/kg, route oral; conditions: in vivo, 168 h
[18] = test system: Mus musculus; assay: Toxicity in ICR mouse assessed as change in spleen weight at 36 mg/kg, po qd for 7 days measured every day for 7 days (0.143 +/- 0.033 g); format: organism-based; design: dose 36 mg/kg, route oral; conditions: in vivo, 168 h
[19] = test system: Mus musculus; assay: Toxicity in ICR mouse assessed as change in spleen weight at 18 mg/kg, po qd for 7 days measured every day for 7 days (0.143 +/- 0.033 g); format: organism-based; design: dose 18 mg/kg, route oral; conditions: in vivo, 168 h
[20] = test system: Mus musculus; assay: Toxicity in ICR mouse assessed as change in kidney weight at 54 mg/kg, po qd for 7 days measured every day for 7 days (0.248 +/- 0.026 g); format: organism-based; design: dose 54 mg/kg, route oral; conditions: in vivo, 168 h
[21] = test system: Mus musculus; assay: Toxicity in ICR mouse assessed as change in kidney weight at 36 mg/kg, po qd for 7 days measured every day for 7 days (0.248 +/- 0.026 g); format: organism-based; design: dose 36 mg/kg, route oral; conditions: in vivo, 168 h
[22] = test system: Mus musculus; assay: Toxicity in ICR mouse assessed as change in kidney weight at 18 mg/kg, po qd for 7 days measured every day for 7 days (0.248 +/- 0.026 g); format: organism-based; design: dose 18 mg/kg, route oral; conditions: in vivo, 168 h
[23] = test system: Mus musculus; assay: Toxicity in ICR mouse assessed as change in liver weight at 36 mg/kg, po qd for 7 days measured every day for 7 days (1.772 +/- 0.120 g); format: organism-based; design: dose 36 mg/kg, route oral; conditions: in vivo, 168 h
[24] = test system: Trachea; assay: Potency index, ratio of theophylline ED50 to compound ED50 for bronchodilatory activity in Wistar rat trachea; format: functional

| EC50 [1] | Structure (SMILES) | further results |
| --- | --- | --- |
| 4230 µM | O=c1ccn(CCCN2CCCCC2)cc1 |  |
| 946 µM | O=c1ccn(CCCN2CCCCC2)c2ccccc12 |  |
|  | COc1cc2nc3n(c(=O)c2cc1OC)CCCCC3 | EC50 [2]: 73 µM |
|  | Cl.O=c1c2ccccc2ncn1CCCN1CCCCC1 | LD50 [3]: 162 mg/kg |
| 2860 µM | O=c1c2ccccc2nc2n1CC[C@@H]2O |  |
| 162 µM | CN(C)CCOc1ncnc2ccccc12 |  |
| 1120 µM | O=c1ccncn1CCCN1CCCCC1 |  |
| 258 µM | c1ccc2c(NCCN3CCOCC3)ncnc2c1 |  |
|  | O=C(O)Cn1cnc2ccccc2c1=O | ED50 [8]: inactive |
| 178 µM | O=c1c2ccccc2ncn1CCN1CCCCC1 |  |
|  | c1ccc2c(SCCCN3CCCCC3)ncnc2c1 [listing 2 of 2 here] | Activity [4]: Active; Activity [5]: Active |
| 45.3 µM | O=c1c2ccccc2[n+]([O-])cn1CCCN1CCCCC1 |  |
| 191 µM | c1ccc2c(NCCN3CCCCC3)ncnc2c1 |  |
| 747 µM | Cn1cnc2ccccc2c1=O |  |
| 76.6 µM | CN1CCCC1CCSc1ncnc2ccccc12 (centres undefined) |  |
| 65.3 µM | CN(C)CCSc1ncnc2ccccc12 |  |
| 440 µM | CN(C)CCn1cnc2ccccc2c1=O |  |
| 58.7 µM | c1ccc2c(SCCCN3CCCCC3)ccnc2c1 |  |
| 43 µM | O=c1cnc2ccccc2n1CCCN1CCCCC1 |  |
|  | Cl.c1ccc2c(SCCCN3CCCCC3)ncnc2c1 | Activity [9]: 0.115 g; Activity [10]: 0.116 g; Activity [11]: 0.122 g; Activity [12]: 0.144 g; Activity [13]: 0.154 g; Activity [14]: 0.146 g; Activity [15]: 1.64 g; Activity [16]: 1.762 g; Activity [17]: 0.131 g; Activity [18]: 0.147 g; Activity [19]: 0.134 g; Activity [20]: 0.242 g; Activity [21]: 0.238 g; Activity [22]: 0.24 g; LD50 [3]: 89.1 mg/kg; Activity [23]: 1.679 g |
| 132 µM | c1ccc2c(OCCCN3CCCCC3)ncnc2c1 |  |
| 601 µM | O=c1c2ccccc2ncn1CCC[N+]1([O-])CCCCC1 |  |
| 173 µM | CN1CCCC1CCNc1ncnc2ccccc12 (centres undefined) |  |
| 104 µM | CN1CCCC1CCn1cnc2ccccc2c1=O (centres undefined) |  |
| 562 µM | O=c1c2ccccc2ncn1CCN1CCCC1 |  |
| 1900 µM | O=c1c2ccccc2ncn1CCN1CCOCC1 |  |
| 301 µM | c1ccc2c(OCCN3CCCCC3)ncnc2c1 |  |

| Structure (SMILES) | EC50 [1] | further results |
| --- | --- | --- |
| Cl.c1ccc2nc(SCCCN3CCCCC3)cnc2c1 | 3.26 µM | LD50 [3]: 104 mg/kg; Activity [4]: Active; Activity [5]: Active |
| Cn1c(=O)c2nc[nH]c2n(C)c1=O [THEOPHYLLINE] | 2090 µM |  |
| c1ccc2c(SCCCN3CCCCC3)ncnc2c1 [listing 1 of 2 here] | 3.42 µM | Activity [6]: Non-toxic; Activity [7]: Non-toxic |
| O=c1[nH]cnc2ccccc12 [QUINAZOLINONE] | 810 µM |  |
| O=c1c2ccccc2ncn1CCCN1CCCCC1 | 28.3 µM | Ratio ED50 [24]: 100 |
